Experimental data as given in patent publication US20240016781A1, “TREATMENT OF KRAS MUTANT CANCERS” (MEI Pharma, Inc., priority 2020, published 2024).
Values joined by “and” are separate entries in the source; they are usually repeats but may differ in a detail not shown here. Equal entries are not always repeated. Where two headings read alike, the source gives them in different places. Each block holds one compound with its values, some of them ahead of it.

Key:
Assay in all cases: 72-hour CellTiter-Glo 2.0 growth inhibition screen (single agent, 9x9 combination dose matrix);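 as to Best CI Level: inhibition effect level at which the best CI was calculated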
Type in all cases: cell-based
[1] = system: SW48 KRAS (G12C/+);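 as to Best CI Level: inhibition effect level at which the best CI was calculated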
[2] = system: HCC1171; conditions: for EC50 / Response Area / Emax / GI50: HCC1171, Lung; for GI50: growth inhibition (GI) curve; for Best CI Level: unit assumed;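 as to Best CI Level: inhibition effect level at which the best CI was calculated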
[3] = system: Panc 04.03;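 as to Best CI Level: inhibition effect level at which the best CI was calculated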
[4] = system: NCI-H1373; conditions: for EC50 / Emax: Homo sapiens; for EC50: NCI-H1373, 72 h; for EC50 / Emax / Response Area: NCl-H1373, Lung; for Emax: NCI-H1373;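 as to Best CI Level: inhibition effect level at which the best CI was calculated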
[5] = system: Gp2D; conditions: for EC50: GP2d;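 as to Best CI Level: inhibition effect level at which the best CI was calculated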
[6] = SW48 KRAS (G12C/+), Colorectal, Additional Single Agent Responses (inhibition, % I), 72 h
[7] = SW48 KRAS (G12C/+), Colorectal, growth inhibition (GI), AUC, single agent, 72 h
[8] = SW48 KRAS (G12C/+), enhancer + MEI-522 (Voruciclib), 72 h
[9] = enhancer combined with MEI-522 (Voruciclib), SW48 KRAS (G12C/+) (Colorectal), 72 hours, inhibition data
[10] = HCC1171 (KRAS G12C), enhancer + MEI-522 (Voruciclib), 72 h;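 as to Best CI Level: inhibition effect level at which the best CI was calculated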
[11] = Additional Single Agent Responses (inhibition, % I), 72 h
[12] = Additional Single Agent Responses, 72 h, read-out: Max Response (% I)
[13] = growth inhibition (GI), AUC, single agent, 72 h
[14] = growth inhibition (GI), single agent, 72 h, read-out: Max Response (% GI)
[15] = enhancer combined with MEI-522 (Voruciclib), HCC1171 (Lung), 72 hours, inhibition data
[16] = Homo sapiens, Panc 04.03, 72 h, read-out: Max Response (% GI)
[17] = Homo sapiens, Panc 04.03, 72 h, read-out: Max Response (% I)
[18] = Panc 04.03 (KRAS G12D), enhancer + MEI-522 (Voruciclib), 72 h;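 as to Best CI Level: inhibition effect level at which the best CI was calculated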
[19] = Panc 04.03, Pancreas, Additional Single Agent Responses (inhibition, % I), 72 h
[20] = Panc 04.03, Pancreas, growth inhibition (GI), AUC, single agent, 72 h
[21] = enhancer combined with MEI-522 (Voruciclib), Panc 04.03 (Pancreas), 72 hours, inhibition data
[22] = NCl-H1373 (KRAS G12C), enhancer + MEI-522 (Voruciclib), 72 h
[23] = enhancer combined with MEI-522 (Voruciclib), NCl-H1373 (Lung), 72 hours, inhibition data
[24] = 72 h, Colorectal, Additional Single Agent Responses (inhibition, % I)
[25] = 72 h, Colorectal, growth inhibition (GI) curve, single agent
[26] = Gp2D (KRAS G12D), enhancer + MEI-522 (Voruciclib), 72 h;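 as to Best CI Level: inhibition effect level at which the best CI was calculated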
[27] = Gp2D, Colorectal, Additional Single Agent Responses (inhibition, % I), 72 h
[28] = Gp2D, Colorectal, Additional Single Agent Responses, 72 h, read-out: Max Response (% I)
[29] = Gp2D, Colorectal, growth inhibition (GI), AUC, single agent, 72 h
[30] = Gp2D, Colorectal, growth inhibition (GI), single agent, 72 h, read-out: Max Response (% GI)
[31] = enhancer combined with MEI-522 (Voruciclib), Gp2D (Colorectal), 72 hours, inhibition data

SMILES: C=CC(=O)N1CCN(c2nc(=O)n(-c3c(C)ccnc3C(C)C)c3nc(-c4c(O)cccc4F)c(F)cc23)[C@@H](C)C1 [AMG510]
- HSA volume [1]: 5.42 and 3.57
- Loewe Volume [1]: 4.73
- EC50 ([1]; Homo sapiens, SW48, 72 h): 2.1 nM
- Emax ([1]; Homo sapiens, SW48, 72 h, read-out: Max Response (% GI)): 36%
- Emax ([1]; Homo sapiens, SW48, 72 h, read-out: Max Response (% I)): 29%
- Response Area [1, 6]: 1.47
- Response Area [1, 7]: 1.78
- Best CI [1, 8]: 0.36
- Synergy Score [1, 8]: 5.97
- Best CI [1, 9]: 0.62
- Best CI Level [1, 9]: 60
- Best CI [2, 10]: 0.26
- Bliss Volume [2, 10]: 3.26
- HSA volume [2, 10]: 4.61
- Loewe Volume [2, 10]: 6.02
- Synergy Score [2, 10]: 7.42
- EC50 [2, 11]: 2.8 nM
- Response Area [2, 11]: 1.99
- Emax [2, 12]: 48%
- GI50 ([2]; single agent, 72 h): 5.5 nM
- Response Area [2, 13]: 3.50
- Emax [2, 14]: 85%
- Best CI [2, 15]: 0.22
- Bliss Volume [2, 15]: −0.99
- HSA volume [2, 15]: 2.26
- Loewe Volume [2, 15]: 3.06
- Synergy Score [2, 15]: 2.15
- Best CI Level [2, 15]: 50%
- EC50 ([3]; Homo sapiens, Panc 04.03, 72 h): 3000 nM
- Emax [3, 16]: 25%
- Emax [3, 17]: 19%
- Best CI [3, 18]: 0.51
- Bliss Volume [3, 18]: 2.52
- HSA volume [3, 18]: −2.59
- Loewe Volume [3, 18]: 2.70
- Synergy Score [3, 18]: 3.01
- Response Area [3, 19]: 0.00
- Response Area [3, 20]: 0.00
- Best CI [3, 21]: 0.60
- Best CI Level [3, 21]: 20
- Bliss Volume [3, 21]: 0.79
- HSA volume [3, 21]: −2.11
- Loewe Volume [3, 21]: 1.18
- Synergy Score [3, 21]: 1.06
- EC50 [4, 11]: 2.5 nM
- EC50 ([4]; growth inhibition (GI) curve, single agent, 72 h): 2.1 nM
- Emax [4, 12]: 49%
- Emax [4, 14]: 65%
- Best CI [4, 22]: 0.28
- Bliss Volume [4, 22]: 2.91
- HSA volume [4, 22]: 1.67
- Loewe Volume [4, 22]: 2.62
- Synergy Score [4, 22]: 4.10
- Response Area [4, 11]: 2.05
- Response Area [4, 13]: 2.56
- Best CI [4, 23]: 0.93
- Best CI Level [4, 23]: 20
- Bliss Volume [4, 23]: −1.68
- HSA volume [4, 23]: 0.90
- Loewe Volume [4, 23]: 0.62
- Synergy Score [4, 23]: 1.25
- EC50 [5, 24]: 2560 nM
- EC50 [5, 25]: 2550 nM
- Best CI [5, 26]: 0.47
- Bliss Volume [5, 26]: 1.60
- HSA volume [5, 26]: −1.47
- Loewe Volume [5, 26]: 1.40
- Synergy Score [5, 26]: 2.14
- Response Area [5, 27]: 0.42
- Emax [5, 28]: 13%
- Response Area [5, 29]: 0.55
- Emax [5, 30]: 18%
- Best CI [5, 31]: 0.90
- Best CI Level [5, 31]: 20
- Bliss Volume [5, 31]: 0.54
- HSA volume [5, 31]: −1.21
- Loewe Volume [5, 31]: 0.47
- Synergy Score [5, 31]: 0.43

- EC50 ([1]; Homo sapiens, SW48, 72 h, SW48 KRAS (G12C/+), Colorectal, Additional Single Agent Responses (inhibition, % I), 72 h, read-out: EC50): 4.3 nM
- EC50 ([1]; Homo sapiens, SW48, 72 h, SW48 KRAS (G12C/+), Colorectal, growth inhibition (GI) curve, single agent, 72 h, read-out: EC50): 4.4 nM
- IC50 ([1]; Homo sapiens, SW48 KRAS (G12C/+), Colorectal, Additional Single Agent Responses (inhibition, % I), 72 h): 4.6 nM
- GI50 ([1]; Homo sapiens, SW48 KRAS (G12C/+), Colorectal, growth inhibition (GI) curve, single agent, 72 h): 4.4 nM
- EC50 [2, 11]: 4.7 nM
- GI50 ([2]; single agent, 72 h): 5.3 nM
- GI50 ([3]; Homo sapiens, Panc 04.03, 72 h): 4.6 nM
- IC50 ([3]; Homo sapiens, Panc 04.03, 72 h): 5.9 nM
- EC50 ([3]; Homo sapiens, Panc 04.03, 72 h, Panc 04.03, Pancreas, Additional Single Agent Responses (inhibition, % I), 72 h): 4.2 nM
- EC50 ([3]; Homo sapiens, Panc 04.03, 72 h, Panc 04.03, Pancreas, growth inhibition (GI) curve, single agent, 72 h): 4.2 nM
SMILES: CC[C@@H]1C(=O)N(C)c2cnc(Nc3ccc(C(=O)N[C@H]4CC[C@H](N5CCN(CC6CC6)CC5)CC4)cc3OC)nc2N1C(C)C [Volasertib]
- Emax ([1]; Homo sapiens, SW48 KRAS (G12C/+), Colorectal, Additional Single Agent Responses, 72 h, read-out: Max Response (% I)): 90%
- Emax ([1]; Homo sapiens, SW48 KRAS (G12C/+), Colorectal, growth inhibition (GI), single agent, 72 h, read-out: Max Response (% GI)): 141%
- Response Area [1, 6]: 3.98
- Response Area [1, 7]: 5.48
- Best CI [1, 8]: 0.08
- Bliss Volume [1, 8]: 5.42
- HSA volume [1, 8]: 1.24
- Loewe Volume [1, 8]: 2.81
- Synergy Score [1, 8]: 11.77
- Best CI [1, 9]: 0.13
- Best CI Level [1, 9]: 80
- Bliss Volume [1, 9]: −0.04
- HSA volume [1, 9]: 0.65
- Loewe Volume [1, 9]: 1.39
- Synergy Score [1, 9]: 3.33
- Best CI [2, 10]: 0.95
- Bliss Volume [2, 10]: −2.15
- HSA volume [2, 10]: −1.49
- Loewe Volume [2, 10]: −1.27
- Synergy Score [2, 10]: 2.07
- Response Area [2, 11]: 1.99
- Emax [2, 12]: 45%
- Response Area [2, 13]: 3.40
- Emax [2, 14]: 79%
- Best CI [2, 15]: 0.79
- Bliss Volume [2, 15]: −3.18
- HSA volume [2, 15]: −0.81
- Loewe Volume [2, 15]: −0.71
- Synergy Score [2, 15]: 0.73
- Best CI Level [2, 15]: 50%
- Emax [3, 16]: 87%
- Emax [3, 17]: 64%
- Best CI [3, 18]: 0.74
- Bliss Volume [3, 18]: 4.14
- HSA volume [3, 18]: 2.74
- Loewe Volume [3, 18]: 1.36
- Synergy Score [3, 18]: 7.71
- Response Area [3, 19]: 2.78
- Response Area [3, 20]: 3.75
- Best CI [3, 21]: 0.67
- Best CI Level [3, 21]: 80
- Bliss Volume [3, 21]: −0.87
- HSA volume [3, 21]: 1.03
- Loewe Volume [3, 21]: 0.18
- Synergy Score [3, 21]: 2.30
- EC50 [5, 24]: 2.1 nM
- EC50 [5, 25]: 2.5 nM
- Best CI [5, 26]: 0.59
- Bliss Volume [5, 26]: 9.40
- HSA volume [5, 26]: 0.44
- Loewe Volume [5, 26]: 1.73
- Synergy Score [5, 26]: 15.26
- IC50 [5, 27]: 2.4 nM
- Response Area [5, 27]: 4.53
- Emax [5, 28]: 91%
- GI50 ([5]; Gp2D, Colorectal, growth inhibition (GI) curve, single agent, 72 h): 2.2 nM
- Response Area [5, 29]: 6.83
- Emax [5, 30]: 161%
- Best CI [5, 31]: 0.16
- Best CI Level [5, 31]: 80
- Bliss Volume [5, 31]: −1.26
- HSA volume [5, 31]: −0.27
- Loewe Volume [5, 31]: −0.15
- Synergy Score [5, 31]: 2.39
